{"source": "patent US20130071897A1", "about": "“METHOD FOR CONTROLLING UNDESIRABLE BYPRODUCTS FORMATION CAUSED BY CONTAMINATING ORGANISMS IN THE PRODUCTION OF ETHANOL FROM SYNGAS” (COSKATA, INC., priority 2011, published 2013)", "key": {"acyl-CoA dehydrogenases": {"tested_on": "acyl-CoA dehydrogenases", "experiment": "In vitro acyl-CoA dehydrogenase ferrocenium assay with C. tyrobutyricum cell-free extract", "format": "biochemical", "conditions": "0.5 to 10 mM compound; rate of ferrocenium reduction at 300 nm", "experimental": "Lehman, et al., in An Acyl-Coenzyme A Dehydrogenase Assay Utilizing the Ferricenium Ion, Analytical Biochemistry 186, pages 280-284 (1990), disclose an in vitro assay screening technique for acyl-CoA dehydrogenases for determining enzyme deficiencies in children. An adaptation of this technique was explored as a potential screening method for ascertaining potential butyrogen inhibitors. An aqueous assay liquor is prepared such that each 1 milliliter sample contains 50 mM of TrisHCl buffer (pH 7.6); 0.05 mM of butyryl-CoA; 5 micromoles of FAD (flavin adenine dinucleotide) and 0.4 mM of ferrocenium. Whole cells of C. tyrobutyricum are lysed and are added to the assay liquor. […] The abbreviation mM stands for millimolar. To assure metabolic consistency among the samples a master batch of C. tyrobutyricum is prepared and harvested at the early log growth stage (approximate O.D. of between about 0.5 and 0.7). The master batch fermentation broth is centrifuged and rinsed with 50 mM TrisHCl buffer (pH 7.6), centrifuged and reconstituted with 50 mM TrisHCl buffer (pH 7.6) to be 10 times more concentrated than the original master batch. Aliquots of about 0.5 milliliter are placed into cryogenic vials (about 1.8 milliliter capacity) and frozen at −80° C. until needed. When needed, a vial is placed in an anoxic Coy chamber and allowed to thaw to room temperature. Once thawed, the cells are added to a 15 mL centrifuge tube and diluted with 0.5 mL of a 2 mg/mL solution of lysozyme (purchased from Aldrich) in 50 mM Tris-HCl (final concentration of lysozyme is about 1 mg/mL). The centrifuge tube is inverted 5 times, removed from the Coy chamber and allowed to incubate at 37° C. for 30 minutes. […] The centrifuge tube is vortexed in the Coy chamber for about 30 seconds, removed from the chamber and centrifuged for 15 minutes at 4000 rpm and 4° C. The tube is returned to the chamber and the cell-free extract (supernatant) is used to prepare the above described samples. The samples are analyzed at various times by absorbance spectroscopy at 300 nm using a Thermo Scientific Evolution 300 UV/Vis spectrophotometer with a 7-cuvette carousel and Starna quartz cuvettes with a septum cap to determine the amount of reduction of ferrocenium. The sample is at laboratory temperature and is maintained under anaerobic conditions. Typically, the absorbance is measured over a period of about 10 to 20 minutes which is sufficient time for the absorbance to stop changing. A linear slope of the rate of change in absorbance during the period that the absorbance is changing is determined using Microsoft Excel® 2010 linear regression to generate a straight line from the data points. The more gradual the slope, the better inhibition because the enzyme is slower at reducing the ferrocenium in the assay sample. A dose-response curve is then determined for each compound by plotting the linear slope against the respective compound concentration. A linear slope is then determined for each compound using Microsoft Excel® 2010 linear regression to generate a straight line from the data points. The steeper the dose-response slope, the better the inhibition because the increased concentration of the compound causes more of a difference in enzyme activity. The dose-response slope generally has a broad standard of deviation due to experimental imprecision and slope determinations."}, "[1]": {"tested_on": "Clostridium tyrobutyricum", "experiment": "Serum bottle batch fermentation of Clostridium tyrobutyricum on fructose, optical density", "format": "cell-based", "conditions": "duplicates A and B; for O.D. Response: Table 17", "experimental": "Ethyl 3-(trifluoromethyl)benzoate is evaluated in a series of batch fermentations to determine the growth response of butyrogens to the presence of this compound at varying concentrations. The batch fermentations are conducted by anoxically filling 100 mL serum bottles with 15 mL of media having the composition given in Tables 12 and 13. About 0.15 mL of a 50% w/w solution of fructose in water (final fructose concentration about 5 g/L) is provided in the bottles. Duplicate runs are conducted for each concentration.\n(§1) Each bottle is inoculated with 1.5 mL of seed culture inoculum of the strict butyrogen Clostridium tyrobutyricum, which has an OD of about 0.40 (which upon a 10 times dilution provides a starting OD for the fermentation of about 0.04). The bottles are maintained at a temperature of 37° C. Two hours after inoculation of the bottles with the bacteria, the compound is added to different bottles as a solution in 50 μL of N-methylpyrrolidone in the amounts indicated in Table 15. The fermentation process is allowed to progress at 37° C. At selected intervals of time, bacterial growth is measured by reading the optical density (OD) of the fermentation liquid. Optical density is measured by anoxically removing an aliquot of fermentation liquid and adding it to a disposable cuvette. OD's ranging between 0.01 and 0.4 are measured directly, while OD's greater than 0.4 are measure after performing a 1/10 dilution with water.\nIn this example ethyl 4,4,4-trifluoro-3-(trifluoromethyl)crotonate and ethyl 3-trifluoromethyl-4-methoxybenzoate are evaluated by batch fermentation. The batch fermentations are conducted by anoxically filling 100 mL serum bottles with 15 mL of media having the composition given in Tables 12 and 13. About 0.15 mL of a 50% w/w solution of fructose in water (final fructose concentration about 5 g/L) is provided in the bottles. Duplicate runs are conducted for each concentration.\nas §1, with “of about 0.42 (which upon” for “of about 0.40 (which upon”, “of about 0.042). The bottles” for “of about 0.04). The bottles”, “in Table 16 and 17. The fermentation” for “in Table 15. The fermentation”, “0.4 are measured after performing” for “0.4 are measure after performing”"}, "[2]": {"tested_on": "Clostridium tyrobutyricum", "experiment": "Butyric acid by gas chromatography in Clostridium tyrobutyricum batch fermentations", "format": "cell-based", "conditions": "for Butyrate Production: Table 19, duplicates A and B", "experimental": "The concentration of butyric acid is determined by gas chromatography for several of the above samples at the stated points in time. The butyrate production is calculated based upon peak area calculations generated by the gas chromatograph. At 11 hours, the concentration of butyric acid for each of the controls is about 0.95 gram per liter, and the concentration of butyric acid for the samples containing 500 ppm of the inhibitor are about 0.6 gram per liter.\nThe concentration of butyric acid is determined by gas chromatography using the procedure set forth in Example 13. The control is reported only in Table 18."}}, "note": "Values joined by “and” are separate entries in the source; they are usually repeats but may differ in a detail not shown here. Equal values may be shown once.", "data": [{"smiles": "CCOC(=O)c1cccc(C(F)(F)F)c1", "note": "[Ethyl 3-trifluormethylbenzoate]", "values": [{"measurement": "Dose-Response Slope", "setting": "acyl-CoA dehydrogenases", "result": 9}, {"measurement": "O.D. Response to Varying Inhibitor Concentrations", "setting": "[1]; 500 ppm, 0 Hours, added 2 h after inoculation", "result": 0.04}, {"measurement": "O.D. Response to Varying Inhibitor Concentrations", "setting": "[1]; 500 ppm, 2 Hours, added 2 h after inoculation", "result": 0.09}, {"measurement": "O.D. Response to Varying Inhibitor Concentrations", "setting": "[1]; 500 ppm, 3.5 Hours", "result": 0.14}, {"measurement": "O.D. Response to Varying Inhibitor Concentrations", "setting": "[1]; 500 ppm, 5.25 Hours, listed as Ethyl 3-(trifluoromethyl)benzoate", "result": "0.21 and 0.23"}, {"measurement": "O.D. Response to Varying Inhibitor Concentrations", "setting": "[1]; 500 ppm, 11 Hours, listed as Ethyl 3-(trifluoromethyl)benzoate", "result": "0.90 and 0.89"}, {"measurement": "O.D. Response to Varying Inhibitor Concentrations", "setting": "[1]; 500 ppm, 20.5 Hours, listed as Ethyl 3-(trifluoromethyl)benzoate", "result": "1.53 and 1.44"}, {"measurement": "O.D. Response to Varying Inhibitor Concentrations", "setting": "[1]; 1000 ppm, 0 Hours, added 2 h after inoculation", "result": 0.04}, {"measurement": "O.D. Response to Varying Inhibitor Concentrations", "setting": "[1]; 1000 ppm, 2 Hours, added 2 h after inoculation", "result": 0.09}, {"measurement": "O.D. Response to Varying Inhibitor Concentrations", "setting": "[1]; 1000 ppm, 3.5 Hours", "result": 0.15}, {"measurement": "O.D. Response to Varying Inhibitor Concentrations", "setting": "[1]; 1000 ppm, 5.25 Hours, listed as Ethyl 3-(trifluoromethyl)benzoate", "result": "0.21 and 0.22"}, {"measurement": "O.D. Response to Varying Inhibitor Concentrations", "setting": "[1]; 1000 ppm, 11 Hours, listed as Ethyl 3-(trifluoromethyl)benzoate", "result": "0.90 and 0.87"}, {"measurement": "O.D. Response to Varying Inhibitor Concentrations", "setting": "[1]; 1000 ppm, 20.5 Hours, listed as Ethyl 3-(trifluoromethyl)benzoate", "result": "1.42 and 1.37"}, {"measurement": "Concentration of butyric acid", "setting": "[2]; 500 ppm, at 11 hours", "result": "about 0.6 gram per liter"}]}, {"smiles": "CCOC(=O)c1ccc(OC)c(C(F)(F)F)c1", "note": "[ethyl 3-trifluoromethyl-4-methoxybenzoate]", "values": [{"measurement": "O.D. Response", "setting": "[1]; 5 mM, 0 Hours, added 2 h after inoculation", "result": 0.42}, {"measurement": "O.D. Response", "setting": "[1]; 5 mM, 2 Hours, added 2 h after inoculation", "result": "0.11 and 0.12"}, {"measurement": "O.D. Response", "setting": "[1]; 5 mM, 4.5 Hours", "result": "0.20 and 0.18"}, {"measurement": "O.D. Response", "setting": "[1]; 5 mM, 6 Hours", "result": "0.16 and 0.10"}, {"measurement": "O.D. Response", "setting": "[1]; 5 mM, 24 Hours", "result": "1.23 and 0.91"}, {"measurement": "O.D. Response", "setting": "[1]; 10 mM, 0 Hours, added 2 h after inoculation", "result": 0.42}, {"measurement": "O.D. Response", "setting": "[1]; 10 mM, 2 Hours, added 2 h after inoculation", "result": 0.11}, {"measurement": "O.D. Response", "setting": "[1]; 10 mM, 4.5 Hours", "result": "0.24 and 0.23"}, {"measurement": "O.D. Response", "setting": "[1]; 10 mM, 6 Hours", "result": "0.12 and 0.13"}, {"measurement": "O.D. Response", "setting": "[1]; 10 mM, 24 Hours", "result": "1.22 and 1.19"}, {"measurement": "Butyrate Production", "setting": "[2]; 5 mM, 6 Hours", "result": "0.19 grams per liter and 0.10 grams per liter"}, {"measurement": "Butyrate Production", "setting": "[2]; 10 mM, 2 Hours", "result": 0.03, "unit": "grams per liter"}, {"measurement": "Butyrate Production", "setting": "[2]; 10 mM, 4.5 Hours", "result": "0.69 grams per liter and 0.67 grams per liter"}, {"measurement": "Butyrate Production", "setting": "[2]; 10 mM, 6 Hours", "result": "0.11 grams per liter and 0.10 grams per liter"}, {"measurement": "Butyrate Production", "setting": "[2]; 10 mM, 24 Hours", "result": "0.19 grams per liter and 0.17 grams per liter"}]}]}
